Measurements from patent publication US20100255580A1, “Differentiation of Human Embryonic Stem Cells” (LIFESCCAN, INC., priority 2007, published 2010).

System: human embryonic stem cells (H9, H7) on MATRIGEL
Assay: FACS of CXCR4, DE protocol on […] (feeder-free)
Format: cell-based
Settings: for cells expressing CXCR4 (FACS): H9 passage 54, end of the 5th day, 100 ng/ml Activin A +/− 10 ng/ml Wnt3a for 2 days
Protocol: Adhered cells were removed from culture plates by five-minute incubation with TrypLE™ Express solution (Invitrogen, CA). Released cells were resuspended in human embryonic stem cell culture medium and recovered by centrifugation, followed by washing and resuspending the cells in a staining buffer consisting of 2% BSA, 0.05% sodium azide in PBS (Sigma, MO). As appropriate, the cells were Fc-receptor blocked for 15 minutes using a 0.1% γ-globulin (Sigma) solution. […] Controls included appropriate isotype matched antibodies, unstained cells, and cells stained only with secondary conjugated antibody. All incubations with antibodies were performed for 30 mins at 4° C. after which the cells were washed with the staining buffer. Samples that were stained with unconjugated primary antibodies were incubated for an additional 30 mins at 4° C. with secondary conjugated PE or -APC labeled antibodies. See Table I for a list of secondary antibodies used. Washed cells were pelleted and resuspended in the staining buffer, and the cell surface molecules were identified using a FACS Array (BD Biosciences) instrument, collecting at least 10,000 events.
Differentiation of embryonic stem cells to definitive endoderm was carried out as previously described in Nature Biotechnology 23, 1534-1541 (December 2005). […] H9 cells were cultured on plates coated with growth factor reduced […] at a 1:30 to 1:10 dilution or on regular […] at a 1:30 to 1:10 dilution The plates were coated with […] for 1 hr at room temperature.
At day 5, the cultures were analyzed by FACS for CXCR4, E-cadherin, CD9, and N-cadherin expression and by real time PCR for SOX-17, SOX-7, Alpha-fetal protein (AFP), CXCR4, Brychyury (Bry), gooscecoid (GSC), HNF-3 beta, and GATA4. AFP and SOX-7 are regarded as visceral endoderm markers, while GATA4, HNF-3 beta and SOX-17 represent definite endoderm markers, and GSC, Bry, and CXCR4 represent markers of primitive streak. FIG. 17 depicts the expression of CXCR4 by FACS.
Differentiation of embryonic stem cells to definitive endoderm was carried out as previously described in Nature Biotechnology 23, 1534-1541 (December 2005). […] In all subsequent examples unless otherwise noted, this treatment regimen will be referred to as the definite endoderm (DE) protocol. In parallel, H9, H7, or H1 cells cultured on MEF feeders were also exposed to the same DE protocol outlined above.
In some of the cultures 20 ng/ml Wnt-3a (Catalog #1324-WN-002, R&D Systems, MN), 20 ng/ml Wnt-5a (Catalog #654-WN-010, R&D Systems, MN), 25 ng/ml Wnt-7a (Catalog #3008-WN-025, R&D Systems, MN), or 25 ng/ml Wnt-5b (Catalog #3006-WN-025, R&D Systems, MN) was added throughout the five day treatment. FIG. 24 depicts phase contrast images of H9P46 definitive endoderm culture in the presence of high concentration of (a) AA or (b) AA+20 ng/ml Wnt-3a. FIG. 25 depicts the expression of CXCR4 by FACS at day 5 for H7P44, and H9P46 lines cultured on […] (1:30 dilution) and exposed to the DE protocol+Wnt-3a (FIG. 25, panels b and d) and −Wnt-3a (FIG. 25, panels a and c).
Control cultures were not treated with Wnt-3a. FIG. 27, panel a depicts the expression of CXCR4 by FACS at day 5 in the absence of Wnt-3a, b) 10 ng/ml Wnt-3a, c) 20 ng/ml Wnt-3a and d) 50 ng/ml Wnt-3a. In the absence of Wnt-3a the expression of CXCR4 was very low. […] Real-time PCR results (FIG. 28, panel a) also confirm this finding.
In order to confirm that the effect of Wnt-3a was through the Wnt pathway, a GSK-3 inhibitor was used to activate the downstream targets of Wnt, such as beta catenin. […] FIG. 29, panel a depicts the expression of CXCR4 by FACS at day 5 in the absence of Wnt-3a or GSK-3B inhibitor, b) +20 ng/ml Wnt-3a, c) +1000 nM GSK-3B inhibitor IX, d) +500 nM GSK-3B inhibitor IX, e) +100 nM GSK-3B inhibitor IX, f) +10 nM GSK-3B inhibitor IX, g) +100 nM GSK-3B inhibitor IX for days 1-2, and h) +10 nM GSK-3B inhibitor IX for days 1-2. […]

[1] = H9P46-P48, 20 ng/ml Wnt-3a or 100-1000 nM GSK-3B inhibitor, day 5

Compound | expression of CXCR4 (CD184) by FACS (H7P44 and H9P46, day 5, DE protocol + 20 ng/ml Wnt-3a vs low serum plus AA) | number of CXCR4 positive cells [1] | number of CXCR4 positive cells (H9P46, 10-50 ng/ml Wnt-3a with 100 ng/ml AA, day 5) | cells expressing CXCR4 (FACS) [%] | expression of CXCR4 (FACS) (H9P46-P48, 10 nm GSK-3B inhibitor, day 5)
Wnt-3a | robust expression | significantly increased | significantly increased | 73 | 
O=C1Nc2cc(Br)ccc2/C1=C1/Nc2ccccc2/C1=N\O [GSK-3B inhibitor IX, reference compound] |  | significantly increased |  |  | very low
Activin A: a member of the TGFβ superfamily; R&D Systems; Group 2 = Activin A (100 ng/ml) |  |  |  | 1 | 
